Source: ChEMBL document CHEMBL1149951, “Antileukaemic properties of 12-hydroxydaphnetoxin derivatives” (Bioorg Med Chem Lett, 1994)
Active and inactive are the calls of the source. No cut-off for these calls is given here.

What was measured:
Mus musculus [1] = experiment: In vivo activity against mice infected with murine p388 lymphocytic leukemia cells at a ip dose of 0.2 mg/kg; assay type: functional; conditions: route intraperitoneal
Mus musculus [2] = experiment: In vivo activity against mice infected with murine p388 lymphocytic leukemia cells at a ip dose of 0.05 mg/kg; assay type: functional; conditions: route intraperitoneal
Mus musculus [3] = experiment: In vivo activity against mice infected with murine p388 lymphocytic leukemia cells at a ip dose of 0.4 mg/kg; assay type: functional; conditions: route intraperitoneal
Mus musculus [4] = experiment: In vivo activity against mice infected with murine p388 lymphocytic leukemia cells at a ip dose of 0.8 mg/kg; assay type: functional; conditions: route intraperitoneal
Mus musculus [5] = experiment: In vivo activity against mice infected with murine p388 lymphocytic leukemia cells at a ip dose of 0.1 mg/kg; assay type: functional; conditions: route intraperitoneal
Mus musculus [6] = experiment: In vivo activity against mice infected with murine p388 lymphocytic leukemia cells at a ip dosage range of 0.05-1.6 mg/kg; Inactive; assay type: functional, organism-based
[7] = In vivo activity against mice infected with murine p388 lymphocytic leukemia cells at a ip dose of 0.8 mg/kg; Toxic; assay type: toxicity, organism-based; design: dose 0.8 mg/kg, route intraperitoneal; conditions: mouse
[8] = In vivo activity against mice infected with mice infected with murine p388 lymphocytic leukemia cells at a ip dose of 0.4 mg/kg; Toxic; assay type: toxicity, organism-based; design: dose 0.4 mg/kg, route intraperitoneal; conditions: mouse
[9] = In vivo activity against mice infected with murine p388 lymphocytic leukemia cells at a ip dose of 0.4 mg/kg; Toxic; assay type: toxicity, organism-based; design: dose 0.4 mg/kg, route intraperitoneal; conditions: mouse
[10] = In vivo activity was against mice infected with murine p388 lymphocytic leukemia cells at a ip dose of 0.8 mg/kg; Toxic; assay type: toxicity, organism-based; design: dose 0.8 mg/kg, route intraperitoneal; conditions: mouse
Mus musculus [11] = experiment: In vivo activity against mice infected with murine p388 lymphocytic leukemia cells at a ip dose of 0.2 mg/kg; Toxic; assay type: functional, organism-based; design: dose 0.2 mg/kg

| Structure (SMILES) | ILS at 0.2 mg/kg (Mus musculus [1]) [%] | ILS at 0.05 mg/kg (Mus musculus [2]) [%] | ILS at 0.4 mg/kg (Mus musculus [3]) [%] | ILS at 0.1 mg/kg (Mus musculus [5]) [%] | ILS (Mus musculus [6]) | ILS [7] | further results |
| --- | --- | --- | --- | --- | --- | --- | --- |
| C=C(C)C12OC3(c4ccccc4)OC1[C@@H]1[C@@H]4O[C@]4(CO)[C@@H](O)[C@]4(O)C(=O)C=C[C@@]4(C)C1(O3)[C@H](C)[C@H]2OC(=O)CCCCCCCCC (stereo partly drawn) | < 20 | < 20 | 42 | < 20 |  |  | ILS at 0.8 mg/kg (Mus musculus [4]): 43% |
| C=C(C)C12OC3(c4ccccc4)OC1[C@@H]1[C@@H]4O[C@@]45COC(C)(C)O[C@H]5[C@]4(O)C(=O)C=C[C@@]4(C)C1(O3)[C@H](C)[C@H]2OC(=O)/C=C/c1ccccc1 (stereo partly drawn) |  |  |  |  | inactive |  |  |
| C=C(C)C12OC3(c4ccccc4)OC1[C@@H]1[C@@H]4O[C@]4(CO)[C@@H](O)[C@]4(O)C(=O)C=C[C@@]4(C)C1(O3)[C@H](C)[C@H]2OC(=O)c1ccccc1 (stereo partly drawn) | 32 | < 20 | 40 | < 20 |  | Toxic |  |
| CC(C)C12OC3(c4ccccc4)OC1[C@@H]1[C@@H]4O[C@]4(CO)[C@@H](O)[C@]4(O)C(=O)CC[C@@]4(C)C1(O3)[C@H](C)[C@H]2OC(=O)CCc1ccccc1 (stereo partly drawn) | < 20 | < 20 | 25 | < 20 |  |  | ILS at 0.8 mg/kg (Mus musculus [4]): 30% |
| C=C(C)C12OC3(c4ccccc4)OC1[C@@H]1[C@@H]4O[C@@]45COC(C)(C)O[C@H]5[C@]4(O)C(=O)C=C[C@@]4(C)C1(O3)[C@H](C)[C@H]2OC(=O)/C=C/C=C/c1ccccc1 (stereo partly drawn) |  |  |  |  | inactive |  |  |
| CC(C)C12OC3(c4ccccc4)OC1[C@@H]1[C@@H]4O[C@]4(CO)[C@@H](O)[C@]4(O)C(=O)CC[C@@]4(C)C1(O3)[C@H](C)[C@H]2OC(=O)CCCCc1ccccc1 (stereo partly drawn) | < 20 | < 20 | 29 | < 20 |  |  | ILS at 0.8 mg/kg (Mus musculus [4]): 27% |
| C=C(C)C12OC3(c4ccccc4)OC1[C@@H]1[C@@H]4O[C@@]45COC(C)(C)O[C@H]5[C@]4(O)C(=O)C=C[C@@]4(C)C1(O3)[C@H](C)[C@H]2OC(=O)CCCCCCCCC (stereo partly drawn) |  |  |  |  | inactive |  |  |
| CCCCCCCCCC(=O)O[C@@H]1[C@@H](C)C23OC4(c5ccccc5)OC([C@@H]2[C@@H]2O[C@]2(CO)[C@@H](O)[C@]2(O)C(=O)C=C[C@@]32C)C1(C(C)C)O4 (stereo partly drawn) | < 20 | < 20 | 30 | < 20 |  |  | ILS at 0.8 mg/kg (Mus musculus [4]): 27% |
| C=C(C)C12OC3(c4ccccc4)OC1[C@@H]1[C@@H]4O[C@]4(CO)[C@@H](O)[C@]4(O)C(=O)C=C[C@@]4(C)C1(O3)[C@H](C)[C@H]2OC(=O)/C=C/c1ccccc1 (stereo partly drawn) | 73 | < 20 |  | 60 |  | Toxic | ILS [8]: Toxic |
| CC(C)C12OC3(c4ccccc4)OC1[C@@H]1[C@@H]4O[C@]4(CO)[C@@H](O)[C@]4(O)C(=O)CC[C@@]4(C)C1(O3)[C@H](C)[C@H]2OC(=O)CCCCCCCCc1ccccc1 (stereo partly drawn) | < 20 | < 20 | 25 | < 20 |  |  | ILS at 0.8 mg/kg (Mus musculus [4]): 25% |
| C=C(C)C12OC3(c4ccccc4)OC1[C@@H]1[C@@H]4O[C@]4(CO)[C@@H](O)[C@]4(O)C(=O)C=C[C@@]4(C)C1(O3)[C@H](C)[C@H]2OC(=O)/C=C/C=C/CCCCC (stereo partly drawn) | 42 | 33 |  | 33 |  | Toxic | ILS [9]: Toxic |
| C=C(C)C12OC3(c4ccccc4)OC1[C@@H]1[C@@H]4O[C@]4(CO)[C@@H](O)[C@]4(O)C(=O)C=C[C@@]4(C)C1(O3)[C@H](C)[C@H]2O (stereo partly drawn) |  |  |  |  | inactive |  |  |
| CC(C)C12OC3(c4ccccc4)OC1[C@@H]1[C@@H]4O[C@]4(CO)[C@@H](O)[C@]4(O)C(=O)C=C[C@@]4(C)C1(O3)[C@H](C)[C@H]2OC(=O)c1ccccc1 (stereo partly drawn) | 42 | < 20 | 48 | 30 |  | Toxic |  |
| C=C(C)C12OC3(c4ccccc4)OC1[C@@H]1[C@@H]4O[C@]4(CO)[C@@H](O)[C@]4(O)C(=O)C=C[C@@]4(C)C1(O3)[C@H](C)[C@H]2OC(=O)/C=C/C=C/c1ccccc1 (stereo partly drawn) | 67 | 33 |  | 33 |  |  | ILS [9]: Toxic; ILS [10]: Toxic |
| C=C(C)C12OC3(c4ccccc4)OC1[C@@H]1[C@@H]4O[C@@]45COC(C)(C)O[C@H]5[C@]4(O)C(=O)C=C[C@@]4(C)C1(O3)[C@H](C)[C@H]2OC(=O)/C=C/C=C/CCCCC (stereo partly drawn) |  |  |  |  | inactive |  |  |
| CC(C)C12OC3(c4ccccc4)OC1[C@@H]1[C@@H]4O[C@]4(CO)[C@@H](O)[C@]4(O)C(=O)C=C[C@@]4(C)C1(O3)[C@H](C)[C@H]2OC(=O)CCc1ccccc1 (stereo partly drawn) | 38 | < 20 | 40 | < 20 |  | Toxic |  |
| C=C(C)C12OC3(c4ccccc4)OC1[C@@H]1[C@@H]4O[C@@]45COC(C)(C)O[C@H]5[C@]4(O)C(=O)C=C[C@@]4(C)C1(O3)[C@H](C)[C@H]2OC(=O)c1ccccc1 (stereo partly drawn) |  |  |  |  | inactive |  |  |
| C=C(C)C12OC3(c4ccccc4)OC1[C@@H]1[C@@H]4O[C@]4(CO)[C@@H](O)[C@]4(O)C(=O)C(C)=C[C@H]4C1(O3)[C@H](C)[C@H]2OC(=O)/C=C/C=C/C=C/CCC (stereo partly drawn) [GNIDITRIN] |  | 44 |  | 68 |  | Toxic | ILS [9]: Toxic; ILS (Mus musculus [11]): Toxic |
| CC(C)C12OC3(c4ccccc4)OC1[C@@H]1[C@@H]4O[C@]4(CO)[C@@H](O)[C@]4(O)C(=O)C=C[C@@]4(C)C1(O3)[C@H](C)[C@H]2OC(=O)CCCCc1ccccc1 (stereo partly drawn) | 43 | < 20 | 43 | < 20 |  | Toxic |  |
| C=C(C)C12OC3(c4ccccc4)OC1[C@@H]1[C@@H]4O[C@@]45COC(C)(C)O[C@H]5[C@]4(O)C(=O)C=C[C@@]4(C)C1(O3)[C@H](C)[C@H]2O (stereo partly drawn) |  |  |  |  | inactive |  |  |
| C=C(C)C12OC3(c4ccccc4)OC1[C@@H]1[C@@H]4O[C@@]45COC(C)(C)O[C@H]5[C@]4(O)C(=O)C=C[C@@]4(C)C1(O3)[C@H](C)[C@H]2OC(=O)/C=C/C=C/C=C/CCC (stereo partly drawn) |  |  |  |  | inactive |  |  |
